According to PMC5787524, “Discovery of a FLT3 inhibitor LDD1937 as an anti-leukemic agent for acute myeloid leukemia” (Oncotarget, 2017):
“And” between values parts separate entries of the source, which are not always exact repeats. Identical values can stand only once. Like-named read-outs stand apart in the source and are kept apart here.

Key:
PC-3 cells = assay: Cell viability / growth inhibition (EZ-Cytox), PC-3; format: cell-based; conditions: Homo sapiens, Table 2, 72 h
Protocol: MV-4-11 human acute myeloid leukemia cells were purchased from the American Type Culture Collection (ATCC, Rockville, MD, USA, CRL-9591), and the cells were cultured in IMDM medium (Sigma Co., St. Louis, MO, USA) supplemented with 10% fetal bovine serum, 1% penicillin/streptomycin and 4 mM L-glutamine (Life Technology, Grand Island, NY). Jurkat (human acute T lymphocytic leukemia, ATCC TIB-152) and K562 (human chronic myelogenous leukemia, ATCC CCL-243) cells were cultured in RPMI-1640 (Sigma Co.), and MCF7 (human breast adenocarcinoma, ATCC HTB-22) and PC-3 (human prostate adenocarcinoma, ATCC CRL-1435) cells were cultured in DMEM (Sigma Co.) medium supplemented with 10% fetal bovine serum and 1% penicillin/streptomycin. The cultured cells were incubated at 37°C with 5% CO2. Cell viability was assessed with a tetrazolium-based assay using the EZ-Cytox Cell Viability Assay kit (DaeilLab, Korea). Briefly, 2,000 ∼ 15,000 cells were plated in 96-well flat bottom plates in 100 µl of medium. The next day, the cells were treated with compounds along with dimethyl sulfoxide (DMSO, Fisher, Waltham, MA, USA) as a negative control. […] After incubation, the optical density (OD) was measured at a wavelength of 450 nm with a Victor multilabel reader (Perkin Elmer, Waltham, MA, USA). The IC50 was calculated with nonlinear regression using Prism version 5.01 (GraphPad, La Jolla, CA, USA).

MV-4-11 cells [1] = assay: Cell viability / growth inhibition (EZ-Cytox), MV-4-11; format: cell-based, human; conditions: for GI50: Homo sapiens, MV4-11, 72 h
Protocol: The cultured cells were incubated at 37°C with 5% CO2. Cell viability was assessed with a tetrazolium-based assay using the EZ-Cytox Cell Viability Assay kit (DaeilLab, Korea). Briefly, 2,000 ∼ 15,000 cells were plated in 96-well flat bottom plates in 100 µl of medium. The next day, the cells were treated with compounds along with dimethyl sulfoxide (DMSO, Fisher, Waltham, MA, USA) as a negative control. […] After incubation, the optical density (OD) was measured at a wavelength of 450 nm with a Victor multilabel reader (Perkin Elmer, Waltham, MA, USA).

[2] = Pharmacokinetics in mice (intravenous and oral); format: in vivo, ICR mice; conditions: for AUC: read-out: AUC (converted); for half-life: read-out: Terminal half-life
Protocol: The protocols for the animal studies were approved by the Institute of Laboratory Animal Resources of Dongguk University, Seoul, South Korea (IACUC-2015-055-1). Five-week-old male Imprinting Control Region (ICR) mice were purchased from the Charles River Company Korea (Orient, Seoul, South Korea). Upon arrival, the animals were randomized and housed four per cage under strictly controlled environmental conditions (22-25°C and 48-52% relative humidity) with a 12 h light/dark cycle at an intensity of 150 to 300 Lux. All mice were provided food and water ad libitum and were then maintained during this study. In the intravenous study of LDD1937, 10 mg/kg of LDD1937 (dissolved in distilled water at a concentration of 2 mg/ml) were intravenously injected into the mice through the tail vein. A blood sample of approximately 0.12 ml was collected by cardiac puncture. Additionally, in the oral study of LDD1937, 10 mg/kg of LDD1937 (dissolved in the same solution used in the intravenous study) were orally administered to the mice. The analysis of LDD1937 and LDD1940, a metabolite of LDD1937, in biological samples was done with LC-MS/MS using the Waters UPLC-XEVO TQ system (Waters Corporation, Milford, CT, USA). […]1940, and carbamazepine (an internal standard, IS) were ionized in the multiple reaction monitoring mode with an ESI interface for positive ions ([M+H]^+). The turbo ion-spray interface was operated at an ion capillary voltage of 3.0 kV with a desolvation gas flow of 650 l/h and a cone gas flow of 10 l/h at 350°C. […] Separation was done on a reverse-phase C18 column (BEH, […]; Waters, Ireland) with a mobile phase, distilled water containing 0.1% formic acid and acetonitrile, at 30°C. After measuring the concentrations of the LDD1937 and LDD1940, standard methods were used to calculate the pharmacokinetic parameters using a non-compartmental analysis (WinNonlin 2.1; […] Corp., Mountain View, CA, USA).

MV-4-11 cells [3] = assay: Cell cycle analysis by PI flow cytometry; format: cell-based, human; conditions: 24 h
Protocol: For cell cycle analysis, cells were seeded in a 10 cm plate (2 × 10^6 cells per well) and treated with the LDD1937 compound. Then, the cells were fixed with ethanol and treated with RNase A (4 mg/mL) and stained with propidium iodide (PI) (Sigma Co). Cell cycle distribution was analyzed by flow cytometry with an Accuri C6 flow cytometer.

[4] = tested on: phosphorylated STAT5 in MV-4-11 cells; assay: STAT5 phosphorylation western blot; format: cell-based, human; conditions: MV-4-11, 4 h
Protocol: Cells were lysed in SDS Lysis buffer (12 mM Tris-Cl, pH 6.8, 5% glycerol, and 0.4% SDS), and the protein concentrations were measured with the SMART BCA Protein Assay kit (iNtRON Biotechnology, Korea). The proteins were resolved with SDS-polyacrylamide gel electrophoresis followed by transfer to PVDF membranes (Millipore, Billerica, MA, USA) and incubated overnight with the appropriate antibodies. The antibodies used were as follows: phospho-STAT5 (p-STAT5; rabbit polyclonal IgG; #9351, 1:1,000), cyclin D1 (rabbit polyclonal IgG; #2922, 1:1,000), and PARP (rabbit polyclonal IgG; #9542, 1:1,000) from Cell Signaling Technology (Danver, MA, USA), STAT5 (rabbit polyclonal IgG; #sc-835, 1:1,000) from Santa Cruz (Santa Cruz, CA, USA), and β-actin (mouse monoclonal IgG; # A5441, 1:5000) from Sigma-Aldrich. Goat anti-rabbit IgG (#111-035-003; 1;5,000) and anti-mouse IgG (#115-035-033; 1:5,000) secondary antibodies were obtained from Jackson ImmunoResearch Laboratories, Inc. (West Grove, PA, USA).

[5] = LDD1937, mice, 10 mg/kg intravenous
[6] = male, ICR, mouse, plasma, LDD1937, mice, 10 mg/kg intravenous
[7] = male, ICR, mouse, plasma, LDD1937, mice, 10 mg/kg oral

## COC(=O)c1ccc2c(c1)/C(=C1/Nc3ccccc3/C1=N\OCCN1CCNCC1)C(=O)N2.Cl.Cl [LDD1937, methyl (2Z,3E)-2′-oxo-3-((2-(piperazin-1-yl)ethoxy)imino)-[2,3′-biindolinylidene]-5′-carboxylate dihydrochloride]
PC-3 cells
  GI50: 1100 ± 140 nM
MV-4-11 cells [1]
  enhancement of MV-4-11 activity compared to the initial compound 1: 40 fold
MV-4-11 cells [1]; 72 h, called IC50 in supplementary text
  GI50: 1 ± 0.15 nM
MV-4-11 cells [1]; Table 2, 72 h, mean ± S.D.
  GI50: 1.2 ± 0.2 nM
[2]; [5]
  CLNR: 83.6 ± 9.81 mL/min/kg
  GI24 h (total amount recovered from the gastrointestinal tract at 24 h): 0.336 ± 0.0235 % of dose
[2]; LDD1937, mice, 10 mg/kg intravenous, 10 mg/kg
  Ae0–24 h (total amount excreted in 24-h urine): 0.283 % of dose and 0.283 ± 0.0252 % of dose
[2]; LDD1937, mice, 10 mg/kg oral
  Ae0–24 h: 0.213 ± 0.0163 % of dose
[2]; LDD1937, mice, 10 mg/kg oral, 10 mg/kg
  GI24 h: 1.67 % of dose and 1.67 ± 1.92 % of dose
[2]; male, ICR, mouse, plasma, 10 h after 10 mg/kg intravenous dosing, mice, read-out: plasma level
  concentration at 10 h: 30 ng/mL
[2]; [6]
  MRT: 2.77 h
  clearance: 83.6 ± 9.81 mL/min/kg
  AUC: 2000 ng·h/mL
  half-life: 2.9 ± 0.47 h
[2]; male, ICR, mouse, plasma, LDD1937, mice, 10 mg/kg intravenous, read-out: Vss
  Vd: 14.1 ± 4.31 L/kg
[2]; [7]
  bioavailability: 1.43%
  AUC: 29.8 ng·h/mL
  half-life: 1.72 ± 0.542 h
[2]; male, ICR, mouse, plasma, LDD1937, mice, 10 mg/kg oral, read-out: Cmax
  Cmax: 23.3 ± 26.2 ng/mL
[2]; male, ICR, mouse, plasma, LDD1937, mice, 10 mg/kg oral, read-out: Tmax (converted)
  Tmax: 0.5 h
[2]; single dose 10 mg/kg intravenous, mice
  plasma concentration reached: 2700 ng/mL
MV-4-11 cells [3]; 10 nM
  G0/G1 Percent: 54.4%
MV-4-11 cells [3]; 100 nM
  Sub-G1 Percent: 31.3%
[4]; 1 nM
  phosphorylated STAT5: a reduction in the phosphorylated STAT5 was observed
[4]; 0.1 µM
  phospho-STAT5 band: completely disappeared
